Laboratory results: patent US5474988A, “5-phenylpyrrolo-1,4-benzoxazine and 5-phenylpyrrolo-1,4-benzothiazine compounds, process and intermediates for their production and pharmaceutical compositions containing them” (Kali-Chemie Pharma GmbH, priority 1993, dated 1995)

Target: T1, 5-lipoxygenase (Cavia porcellus, UniProt A0A286X958)
T1 construct: The 5-LO was concentrated in a known manner from PMNs of male Dunkin-Hartley guinea-pigs; endogenous in cells; host or cells: peritoneal PMNs of male Dunkin-Hartley guinea-pigs, homogenized; 10,000 x g supernatant used as enzyme solution
T1 sequence (A0A286X958 1-674): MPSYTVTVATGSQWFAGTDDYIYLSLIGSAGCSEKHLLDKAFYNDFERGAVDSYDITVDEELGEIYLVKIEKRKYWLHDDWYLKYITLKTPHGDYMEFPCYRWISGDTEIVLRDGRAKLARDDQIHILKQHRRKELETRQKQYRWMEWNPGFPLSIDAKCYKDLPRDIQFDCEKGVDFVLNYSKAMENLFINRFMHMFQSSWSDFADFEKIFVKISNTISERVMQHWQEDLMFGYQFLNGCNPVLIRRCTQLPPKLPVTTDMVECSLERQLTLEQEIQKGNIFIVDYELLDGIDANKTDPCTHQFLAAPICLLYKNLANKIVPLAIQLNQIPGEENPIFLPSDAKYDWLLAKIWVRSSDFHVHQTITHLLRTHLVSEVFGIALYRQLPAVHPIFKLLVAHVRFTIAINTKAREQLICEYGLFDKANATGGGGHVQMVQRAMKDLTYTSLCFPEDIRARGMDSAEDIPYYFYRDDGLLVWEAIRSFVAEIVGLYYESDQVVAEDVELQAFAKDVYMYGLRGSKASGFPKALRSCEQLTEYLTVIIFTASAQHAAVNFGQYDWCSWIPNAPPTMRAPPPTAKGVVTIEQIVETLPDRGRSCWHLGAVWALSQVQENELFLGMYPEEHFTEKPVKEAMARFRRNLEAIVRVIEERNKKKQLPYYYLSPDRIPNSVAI
Test: inhibitory activity on free 5-lipoxygenase concentrated from peritoneal PMNs of the guinea-pig (5-HETE formation)
Format: biochemical
Settings: 10^-5 mole/liter; guinea-pig 5-LO, 37° C.; read-out: In vitro % inhibitory activity on 5-HETE formation caused by free 5-LO
Excerpt: 4b. In vitro determination of inhibitory activity on 5-lipoxygenase concentrated from peritoneal PMNs of the guinea-pig.
An inhibition of 5-lipoxygenase can be caused by direct inhibitory action of the substances on the enzyme and/or by interference with the activation of the enzyme. While in test 4a the 5-lipoxygenase inhibition of the substances was investigated in rat PMN cells, in test 4b the inhibitory activity of the substances was investigated on free 5-LO concentrated from guinea-pig PMN cells according to the method of D. Aharony et al., J. Biol. Chem. 261 (1986), 11512-11519 (1986).
The 5-LO was concentrated in a known manner from PMNs of male Dunkin-Hartley guinea-pigs (body weight 400 to 500 g) as follows. 10 ml of a solution containing 27.9 g/l of sodium thioglycolate were injected i.p. into the animals in order to induce the PMN invasion as a result of this inflammatory stimulus. After 22 hours, the animals were sacrificed by lethal ether anaesthesia. 70 ml of HBSS without Ca^++ and Mg^++ ions and containing 0.2% by weight of sodium citrate were then injected into the abdominal cavity. The cell suspension (>80% of the cells are PMNs) was withdrawn from the abdominal cavity, filtered through a cheese-making filter cloth, and washed twice with a 50 mM potassium phosphate buffer solution of pH 7.4, which contained 0.5 mM ethylenediaminetetraacetic acid, 1% by weight of gelatine and 20 μM indomethacin. The cells were resuspended, and the PMN suspension containing 10^8 cells/ml was homogenized three times for 15 seconds each in an ice-bath in a homogenizer of the Labsonic™ type set at high speed. The resulting suspension was centrifuged at 4° C. (15 minutes at 10,000×g). The supernatant liquid was used for the investigation as a solution of the free 5-LO enzyme.
The experiments were carried out at 37° C. for 7 minutes using 0.625 ml samples of this enzyme solution. For the experiments, the enzyme solution (=equivalent of 2.5×10^7 cells), 0.5 mM glutathione, 1 mM ATP and 0.3 mM calcium chloride were added to test tubes. […] of the test substance were added to the samples dissolved in sufficient dimethylformamide such that the dimethylformamide concentration in each test tube is 0.5%. Only dimethylformamide was added to the control samples. After 2 minutes, the formation of 5-(S)-hydroxy-6,8,11,14-eicosatetraenoic acid (=[…]) was initiated by addition 10 μM arachidonic acid. After 5 minutes, the reaction was terminated by addition of 0.625 ml of a mixture of methyl acetate/methanol/0.2 m citric acid 15:2:0.5 v/v/v. 5-HETE was extracted twice using this solvent mixture. The 5-HETE-containing phases were combined and evaporated to dryness under a nitrogen atmosphere. The residue was taken up in a mixture of methanol/water/acetic acid 75:21:0.02 v/v/v having a pH of 5.7, and the solution was investigated for its content of 5-HETE by means of reverse phase HPLC. To accomplish this, a […] silanized silica gel column (Hichrom® ODS2, 250×4.6 mm) was employed as the adsorbent and a mixture of methanol/water/acetic acid 75:21:0.02 adjusted to pH 5.7 with ammonia and having a flow rate of 1 ml/min was used as the eluent. 5-HETE, which was eluted as a single peak after 20 minutes, was identified by comparison with standard solutions eluted at the same time and determined using a UV light detector at a wavelength of 235 nm. Quantitative determination was carried out by comparison of the peak area obtained with peak areas occurring in the calibrated standard solutions. From the 5-HETE contents of the samples determined, the inhibitory activity of the test substances was calculated in % inhibition of 5-HETE synthesis in comparison to the control samples containing no test substance.

| SMILES | inhibition at 10 µM [%] |
| --- | --- |
| COc1cc(-c2c(C)c3c(O)ccc4c3n2CC(CCC(=O)N2CCN(c3ccccn3)CC2)O4)cc(C)c1O (centres unmarked) [Example 72] | 100 |
| COc1cc(-c2c(C)c3cccc4c3n2CC(CCC(=O)N2CCN(c3ccc(C)cn3)CC2)O4)ccc1O (centres unmarked) [Example 39] | 100 |
| COc1ccc2c3c1c(C)c(-c1ccc(O)cc1)n3CC(CCN1CCN(c3cc(C)ccn3)CC1)O2 (centres unmarked) [Example 3, 2,3-Dihydro-5-(4-hydroxyphenyl)-7-methoxy-6-methyl-2-[2-(4-(4-methylpyridin-2-yl)piperazin-1-yl)ethyl]pyrrolo[1,2,3-de]-1,4-benzoxazine] | 53 |
| Cc1ccnc(N2CCN(CCC3Cn4c(-c5ccc(O)cc5)c(C)c5c(O)ccc(c54)O3)CC2)c1 (centres unmarked) [Example 4, 2,3-Dihydro-7-hydroxy-5-(4-hydroxyphenyl)-6-methyl-2-[2-(4-(4-methylpyridin-2-yl)piperazin-1-yl)ethyl]pyrrolo[1,2,3-de]-1,4-benzoxazine] | 100 |
| COc1cc2c3c(c1)c(C)c(-c1cc(C)c(O)c(C)c1)n3CC(CCN1CCN(c3cc(C)ccn3)CC1)O2 (centres unmarked) [Example 43] | 77 |
| Cc1cc(-c2c(C)c3cccc4c3n2CC(CCCC(=O)N2CCN(c3ccccn3)CC2)O4)cc(C)c1O (centres unmarked) [Example 23] | 93 |
| Cc1cc(-c2c(C)c3c(OCc4ccccc4)ccc4c3n2CC(CCC(=O)N2CCN(c3ccccn3)CC2)O4)cc(C)c1O (centres unmarked) [Example 75] | 100 |
| Cc1cc(-c2c(C)c3cccc4c3n2CC(CCC(=O)N2CCN(c3ccccn3)CC2)O4)cc(C)c1O (centres unmarked) [Example 26] | 96 |
| Cc1ccnc(N2CCN(C(=O)CCC3Cn4c(-c5ccc(O)cc5)c(C)c5cccc(c54)O3)CC2)c1 (centres unmarked) [Example 15] | 94 |
| COc1cc(-c2c(C)c3cccc4c3n2CC(CCN2CCN(c3cc(C)ccn3)CC2)O4)ccc1O (centres unmarked) [Example 12] | 100 |
| Cc1ccnc(N2CCN(CCC3Cn4c(-c5ccc(O)c(O)c5)c(C)c5cccc(c54)O3)CC2)c1 (centres unmarked) [Example 13] | 99 |
| Cc1ccnc(N2CCN(C(=O)CCC3Cn4c(-c5cc(C)c(O)c(C)c5)c(C)c5cccc(c54)O3)CC2)c1 (centres unmarked) [Example 25] | 92 |
| Cc1ccc(N2CCN(C(=O)CCC3Cn4c(-c5ccc(O)cc5)c(C)c5cccc(c54)O3)CC2)nc1 (centres unmarked) [Example 34] | 97 |
| Cc1ccnc(N2CCN(C(=O)CCC3Cn4c(-c5ccc(O)cc5)c(C)c5c(O)ccc(c54)O3)CC2)c1 (centres unmarked) [Example 69] | 100 |

The remaining lines, values ahead:

| inhibition at 10 µM [%] | SMILES |
| --- | --- |
| 50 | Cc1cc(-c2c(C)c3c(F)ccc4c3n2CC(CCN2CCN(c3ccccn3)CC2)O4)cc(C)c1O (centres unmarked) [Example 27] |
| 100 | Cc1ccnc(N2CCN(CCCC3Cn4c(-c5cc(C)c(O)c(C)c5)c(C)c5c(O)ccc(c54)O3)CC2)c1 (centres unmarked) [Example 73] |
| 100 | Cc1ccnc(N2CCN(C(=O)CCC3Cn4c(-c5cc(C)c(O)c(C)c5)c(C)c5c(O)ccc(c54)O3)CC2)c1 (centres unmarked) [Example 67] |
| 99 | Cc1cc(-c2c(C)c3cccc4c3n2CC(CCCCN2CCN(c3ccccn3)CC2)O4)cc(C)c1O (centres unmarked) [Example 65] |
| 88 | Cc1ccnc(N2CCN(C(=O)CCCC3Cn4c(-c5cc(C)c(O)c(C)c5)c(C)c5cccc(c54)O3)CC2)c1 (centres unmarked) [Example 9, 2,3-Dihydro-5-(3,5-dimethyl-4-hydroxyphenyl)-6-methyl-2-[4-(4-(4-methylpyridin-2-yl)piperazin-1-yl)-4-oxobutyl]-pyrrolo[1,2,3-de]-1,4-benzoxazine] |
| 100 | Cc1cccnc1N1CCN(CCCC2Cn3c(-c4cc(C)c(O)c(C)c4)c(C)c4c(O)ccc(c43)O2)CC1 (centres unmarked) [Example 74] |
| 100 | Cc1ccnc(N2CCN(CCC3Cn4c(-c5cc(C)c(O)c(C)c5)c(C)c5cccc(c54)O3)CC2)c1 (centres unmarked) [Example 20] |
| 55 | Cc1ccnc(N2CCN(CCC3Cn4c(-c5cc(C)c(O)c(C)c5)c(C)c5cc(F)cc(c54)O3)CC2)c1 (centres unmarked) [Example 42] |
| 98 | Cc1ccnc(N2CCN(CCC3Cn4c(-c5cc(C)c(O)c(C)c5)c(C)c5cc(O)cc(c54)O3)CC2)c1 (centres unmarked) [Example 44] |
| 44 | Cc1ccnc(N2CCN(CCC3Cn4c(-c5cc(C)c(O)c(C)c5)c(C)c5c(F)ccc(c54)O3)CC2)c1 (centres unmarked) [Example 28] |
| 67 | Cc1ccnc(N2CCN(CCCC3Cn4c(-c5cc(C)c(O)c(C)c5)c(C)c5c(F)ccc(c54)O3)CC2)c1 (centres unmarked) [Example 29] |
| 100 | Cc1cc(-c2c(C)c3c(O)ccc4c3n2CC(CCC(=O)N2CCN(c3ccccn3)CC2)O4)cc(C)c1O (centres unmarked) [Example 71] |
